From patent US8715761B2, “Flavor molecules” (Givaudan S.A., priority 2008, dated 2014)

What was measured:
Type in all cases: in vivo
[1] = Taste testing in water by a panel of experienced tasters
Description: The taste testing was made by a panel of experienced tasters.

[2] = Sweet isointensity against sugar solutions by a testing panel
Method: The sweet isointensity was tested against a variety of sugar solutions by a testing panel.

[3] = Sweetness in plain non-fat yoghurt by a trained panel; details: 5% sugar and 25 ppm of the compound in plain non-fat yoghurt
Method: 5% sugar and 25 ppm of the compound were added to plain non-fat yoghurt. A trained panel compared this to a series of plain non-fat yoghurts to which 5%, 6% 7% and 8% sugar had been added.

[4] = Isointensity (R-index) of 20 ppm Compound 13 in water, alone and with 7% sucrose, versus sucrose solutions
Description: The sweet enhancement effect of Compound 13 is illustrated in the following tables: the isointensity of Compound 13 at 20 ppm equals 0.5% sucrose. The isointensity of 7% sucrose with 20 ppm 1-(2-hydroxyphenyl)-3-(pyridin-4-yl)propan-1-one is 8% sucrose. Therefore, the perceived enhancement of sucrose is about 0.5% sucrose (8%-7.5%). This sweet enhancement effect is also observed with consumable products containing other natural and artificial sweeteners, for example, carbohydrates; sucrose, lactose, D-glucose, D-tagatose, D-fructose whether naturally- or synthetically-produced, erythritol, threitol, arabitol, ribitol, xylitol, sorbitol, mannitol, maltitol, isomaltitol, dulcitol, and lactitol, thaumatin, glycin, D-phenylalanine, D-tryptophan, sodium cyclamate, acesulfam K, neohesperidine dihydrochalcone, sodium salt of saccharin, aspartame, superaspartame, neotam, alitam, sucralose, and stevioside.

[5] = Flavorist evaluation of how Compound 13 modifies a flavor in water and in application
Description: Evaluation Data on the Compound of Example 13, showing how it Modifies a Flavor in Water and in Application.
Strawberry A=candy strawberry. Strawberry B=green strawberry. Strawberry C=floral strawberry. Strawberry D=fruity strawberry.

[6] = 7% sucrose + 20 ppm Cmpd 13 in water vs. 7% sucrose
[7] = 7% sucrose + 20 ppm Cmpd 13 in water vs. 8% sucrose
[8] = 7% sucrose + 20 ppm Cmpd 13 in water vs. 9% sucrose
[9] = 7% sucrose + 20 ppm Cmpd 13 in water vs. 10% sucrose
[10] = 20 ppm Compound 13 in water vs. 0.5% sucrose
[11] = 20 ppm Compound 13 in water vs. 1% sucrose

## COc1cccc(CCC(=O)c2ccccc2O)n1 [Example 2, 1-(2-hydroxyphenyl)-3-(6-methoxypyridin-2-yl) propan-1-one]
[1]; 10 ppm
  Taste results in water: Slightly sweet/bitter
[1]; 100 ppm
  Taste results in water: sweet, bitter, slight fruity

## Cl.O=C(CCc1ccncc1)c1ccccc1O [Example 21, 4-(3-(2-hydroxyphenyl)-3-oxopropyl)pyridinium chloride]
[2]; 30 ppm
  sweet isointensity (isosweet to): 0.75 % sucrose
[2]; 30 ppm of the compound + 7% sucrose
  sweetness equivalent: 8.5 % sucrose
[2]; 35 ppm
  sweet isointensity (isosweet to): 1.0 % sucrose
[2]; 40 ppm
  sweet isointensity (isosweet to): 1.25 % sucrose
[3]
  isosweet to: 6.5 % sugar

## Cc1ncsc1CCC(=O)c1ccccc1O [Example 4, 1-(2-hydroxyphenyl)-3-(4-methylthiazol-5-yl)propan-1-one]
[1]; 0.1 to 1 ppm
  Taste results in water: petroleum, sulfur
[1]; 10 ppm
  Taste results in water: very weak sweet, brothy
[1]; 100 ppm
  Taste results in water: sweet, brothy, gassy, bitter, linger

## O=C(CCc1ccncc1)c1ccccc1O [Example 13, 1-(2-hydroxyphenyl)-3-(pyridin-4-yl)propan-1-one]
[4]; [6]
  R-index: 66%
  sample sweetness: sweeter
[4]; [7]
  R-index: 43%
  sample sweetness: isosweet
[4]; [8]
  R-index: 8%
  sample sweetness: less
[4]; [9]
  R-index: 4%
  sample sweetness: less
[4]; 7% sucrose with 20 ppm compound
  isointensity: 8 % sucrose
[4]; [10]
  R-index: 61%
  sample sweetness: isosweet
[4]; [11]
  R-index: 14%
  sample sweetness: less sweet
[4]; 20 ppm in 7% sucrose (8%-7.5%)
  perceived enhancement of sucrose: about 0.5 % sucrose
[4]; 20 ppm in water
  isointensity: 0.5 % sucrose
[1]; 0.01 ppm to 0.1 ppm
  Taste results in water: nothing
[1]; 1 ppm
  Taste results in water: weak sweet
[1]; 10 ppm
  Taste results in water: sweet
[1]; 100 ppm
  Taste results in water: very sweet, licorice linger
[5]; 2% milk, 20 ppm compound 13
  Flavorist Evaluation: Slight change in profile, Sweeter than control
[5]; Cereal, 50% reduced sugar + 20 ppm of compound 13
  Flavorist Evaluation: Not lingering, more brown notes, roasted,
[5]; Cereal, 50% reduced sugar + 20 ppm of compound 13 + 100 ppm of Sweet Flavor B
  Flavorist Evaluation: Nice, works well, more close to sugar taste,
[5]; Cereal, 50% reduced sugar + 50 ppm of compound 13
  Flavorist Evaluation: Sweeter than 50% reduced control, better
[5]; Strawberry yoghurt, 3% fat, 7% sugar, Strawberry flavour D @ 0.1% + 10 ppm of compound 13
  Flavorist Evaluation: Fruity, slightly fermented, caramellic, green
[5]; Strawberry yoghurt, 3% fat, 7% sugar, Strawberry flavour D @ 0.1% + 25 ppm of compound 13
  Flavorist Evaluation: Fruity, sweet, fermented, caramellic, apple like
[5]; Strawberry yoghurt, 3% fat, 7% sugar, Strawberry flavour D @ 0.1% + 50 ppm of compound 13
  Flavorist Evaluation: Fermented, sweet, brown, caramellic, overripe
[5]; Vanilla ice cream, 8% vegetable fat, Vanilla flavour A @ 0.5% + 10 ppm of compound 13
  Flavorist Evaluation: creamy, vanillic, sweet, slightly cooked
[5]; Vanilla ice cream, 8% vegetable fat, Vanilla flavour A @ 0.5% + 15 ppm of compound 13
  Flavorist Evaluation: creamy, sweet, vanillic, lingering sweet vanilla
[5]; Vanilla ice cream, 8% vegetable fat, Vanilla flavour A @ 0.5% + 30 ppm of compound 13
  Flavorist Evaluation: sweet, vanillic, lingering sweet vanilla
[5]; Water, 7% sugar + 20 ppm of compound 13
  Flavorist Evaluation: Sweeter than 7% sugar, little floral, fuller, slight
[5]; Water, 7% sugar + 50 ppm of compound 13
  Flavorist Evaluation: Sweeter than above, very close to 9% sugar-
[5]; Water, 7% sugar with 0.105% Citric acid + 20 ppm of compound 13
  Flavorist Evaluation: Sweeter than control, not effecting acidity,
[5]; Water, 7% sugar with 0.105% Citric acid + 50 ppm of compound 13
  Flavorist Evaluation: Sweeter than sample at 20 ppm, musty, clean,
[5]; Water, Strawberry A @ 0.2% + 20 ppm compound 13
  Flavorist Evaluation: Green character remains but softer, sweeter
[5]; Water, Strawberry B @ 0.2% + 20 ppm compound 13
  Flavorist Evaluation: Sweeter, less green, jammer, maltol-like note,
[5]; Water, Strawberry C @ 0.2% + 20 ppm compound 13
  Flavorist Evaluation: Less green, less floral, burnt sugar caramel
[5]; Water, Sweetness Improver Flavor A + 5 ppm compound 13 in 25% sugar reduction Grape Type Drink
  Flavorist Evaluation: Sweet grape character with the acidic middle

## COc1ncccc1CCC(=O)c1ccccc1O [Example 3, 1-(2-hydroxyphenyl)-3-(2-methoxypyridin-3-yl)propan-1-one]
[1]; 1 ppm
  Taste results in water: Very weak sweet
[1]; 10 ppm
  Taste results in water: Very weak sweet
[1]; 50 ppm
  Taste results in water: bitter, weakly sweet and burning

## Cc1cc(CCC(=O)c2ccccc2O)no1 [Example 6, 1-(2-hydroxyphenyl)-3-(5-methylisoxazol-3-yl)propan-1-one]
[1]; 0.1 ppm
  Taste results in water: slightly bitter
[1]; 1 ppm
  Taste results in water: slightly bitter, weakly sweet
[1]; 10 ppm
  Taste results in water: brothy, umami, soapy, irritating, garlic
[1]; 100 ppm
  Taste results in water: umami, bitter, soapy, garlic

## O=C(CCc1cccnc1)c1ccccc1O [Example 7, 1-(2-hydroxyphenyl)-3-(pyridin-3-yl)propan-1-one]
[1]; 0.1 ppm
  Taste results in water: nothing
[1]; 1 ppm
  Taste results in water: very weak sweet, astringent
[1]; 10 ppm
  Taste results in water: waxy, delayed sweet, astringent
[1]; 100 ppm
  Taste results in water: weak sweet, chemical, bitter

## O=C(CCc1ccco1)c1ccccc1O [Example 8, 3-(furan-2-yl)-1-(2-hydroxyphenyl)propan-1-one]
[1]; 0.01 ppm
  Taste results in water: nothing
[1]; 0.1 ppm
  Taste results in water: soap, delayed sweet
[1]; 1 ppm
  Taste results in water: soap, umami, bitter
[1]; 10 ppm
  Taste results in water: licorice aroma, soapy, weak sweet, bitter, vegetable, terpen
[1]; 100 ppm
  Taste results in water: bitter, licorice aroma, weak sweet, celery, umami, brothy

## Cc1csc(CCC(=O)c2ccccc2O)n1 [Example 11, 1-(2-hydroxyphenyl)-3-(4-methylthiazol-2-yl)propan-1-one]
[1]; 0.01 ppm
  Taste results in water: nothing
[1]; 0.1 ppm
  Taste results in water: very weak bitter
[1]; 1 ppm
  Taste results in water: astringent, bitter
[1]; 10 ppm
  Taste results in water: bitter, astringent
[1]; 100 ppm
  Taste results in water: bitter, terpen, weak sweet

## COc1ccc(CCC(=O)c2ccc(O)cc2O)cn1 [Example 18]
[1]; 100 ppm
  Taste results in water: 100 ppm, sweet

## O=C(CCc1ccccn1)c1ccccc1O [Example 12, 1-(2-hydroxyphenyl)-3-(pyridin-2-yl)propan-1-one]
[1]; 1 ppm
  Taste results in water: umami
[1]; 10 ppm
  Taste results in water: high umami like taste
[1]; 100 ppm
  Taste results in water: strong umami, slightly bitter

## COc1ccc(CCC(=O)c2ccccc2O)cn1 [Example 1, 1-(2-hydroxyphenyl)-3-(6-methoxypyridin-3-yl)propan-1-one]
[1]; 5 ppm
  Taste results in water: very weak sweet
[1]; 20 ppm
  Taste results in water: weakly sweet
[1]; 100 ppm
  Taste results in water: very strong sweet, weak bitter taste

## O=C(CCc1nccs1)c1ccccc1O [Example 15, 1-(2-hydroxyphenyl)-3-(thiazol-2-yl)propan-1-one]
[1]; 0.01 ppm
  Taste results in water: delayed umami aftertaste
[1]; 0.1 ppm
  Taste results in water: delayed umami aftertaste
[1]; 1 ppm
  Taste results in water: weak plastic, soap, umami, astringent
[1]; 10 ppm
  Taste results in water: astringent. strong umami, weak soap, slight bitter
[1]; 100 ppm
  Taste results in water: bitter. umami
